Measurements as given in patent US9115374B2, “SYN3 compositions and methods” (MERCK SHARP & DOHME CORP., priority 2001, dated 2015).

Assay: Stability of lyophilized formulations of SYN3, concentration by HPLC after reconstitution
Format: physicochemical
Details: in the dehydrated powder at 40° C.
Experimental: Stability testing of the resultant lyophilized products of Examples 13, 14 and 15 yielded the following results:
Stability testing was accomplished by HPLC. Lyophilized formulations were reconstituted (redissolved) with 19.5 ml WFI. Samples were placed in the indicated temperature conditions, incubated for specified times and concentrations were determined by HPLC and compared to initial concentrations.

## C[C@H](CCC(=O)NCCCN(CCCNC(=O)[C@H](O)[C@@H](O)[C@H](O[C@@H]1O[C@H](CO)[C@H](O)[C@H](O)[C@H]1O)[C@H](O)CO)C(=O)CC[C@@H](C)[C@H]1CC[C@H]2[C@@H]3[C@H](O)C[C@@H]4C[C@H](O)CC[C@]4(C)[C@H]3C[C@H](O)[C@]12C)[C@H]1CC[C@H]2[C@@H]3[C@H](O)C[C@@H]4C[C@H](O)CC[C@]4(C)[C@H]3C[C@H](O)[C@]12C [SYN3, (N —(3-cholamidopropyl)—N —(3-lactobionamidopropyl))-cholamide]
  time SYN3 remains stable: at least 3 months
